Experiment [1] relates to aromatase. Kind of experiment: in vivo inhibition of aromatase activity: suppression of ovarian estrogen content of PMS-hCG primed female rats. The note with it: Rattus norvegicus, po. The protocol:
Twenty-one-day-old female rats are injected subcutaneously with 10 IU pregnant mare serum gonadotropin (PMS). Two days later the same rats are injected subcutaneously with 30 IU human chorionic gonadrotropin (hCG). On the day following the hCG treatment the rats are injected subcutaneously with either propylene glycol (0.2 ml:p.o.) or with various doses of the test compound. […] Four hours after the injection of androstenedione the rats are killed and their ovaries removed and trimmed free of adhering tissue and stored in pairs at -40° C. To determine the total estrogen content of the ovaries, 1.5 ml of 0.05M aqueous potassium phosphate buffer, pH 7.4, and 0.2 ml of 0.1N aqueous sodium hydroxide are added to the tissues which are then homogenized. The homogenate is extracted with 15 ml of diethyl ether, 5 ml aliquots are radioimmunoassayed with antiserum having 100% cross reactivity with estrone, estradiol and estriol. The results are expressed as ng estrogen/pair of ovaries.

The target in experiment [2] is T1, thromboxane synthetase (Homo sapiens, UniProt P24557).
T1 construct: crude microsomal preparation of thromboxane synthetase from lysed hyman platelets; from tissue; host or cells: lysed human (printed 'hyman') platelets, crude microsomes
T1 sequence (P24557 1-533): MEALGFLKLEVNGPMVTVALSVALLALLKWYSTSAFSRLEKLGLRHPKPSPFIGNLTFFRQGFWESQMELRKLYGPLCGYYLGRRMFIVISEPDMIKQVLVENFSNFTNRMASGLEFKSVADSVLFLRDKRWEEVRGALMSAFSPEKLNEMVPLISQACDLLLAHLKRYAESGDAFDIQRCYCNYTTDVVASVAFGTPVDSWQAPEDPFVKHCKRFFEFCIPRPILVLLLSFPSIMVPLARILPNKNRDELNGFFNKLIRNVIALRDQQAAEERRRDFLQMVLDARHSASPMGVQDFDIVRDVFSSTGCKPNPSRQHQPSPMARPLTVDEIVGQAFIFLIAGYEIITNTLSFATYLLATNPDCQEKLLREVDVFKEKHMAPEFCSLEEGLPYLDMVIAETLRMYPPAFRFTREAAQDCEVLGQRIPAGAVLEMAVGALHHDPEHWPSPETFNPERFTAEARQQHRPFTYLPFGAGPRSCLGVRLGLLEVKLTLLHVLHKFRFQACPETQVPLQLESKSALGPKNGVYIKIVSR
Kind of experiment: in vitro inhibition of the thromboxane synthetase enzyme (TxB2/PGF2 ratio). The note with it: 30 min incubation. The class given is biochemical. The protocol:
Res. Comm. 74, 1432 (1977); the testing procedure is as follows:
^14 C-arachidonic acid is incubated with an enzyme preparation consisting of solubilized and partially purified prostaglandin cyclo-oxygenase from sheep seminal vesicles and a crude microsomal preparation of thromboxane synthetase from lysed hyman platelets. The test compound (dissolved in buffer, or if necessary, in a small amount of ethanol) is added to the incubation medium. At the end of the incubation period (30 minutes), Prostaglandin E2 (PGE2) is reduced to a mixture of Prostaglandin F2 α and F2 β (PGF2 α+β) by addition of sodium borohydride. The radioactive products and excess substrate are extracted into ethyl acetate; the extract is evaporated to dryness; the residue is dissolved in acetone, spotted on thin-layer plates and chromatographed in the solvent system toluene: acetone: glacial acetic acid (100 volumes: 100 volumes: 3 volumes). The radioactive zones are located; those corresponding to Thromboxane B2 (T×B2) and PGF2 α+β are transferred to liquid scintillation vials and counted. The ratio of counts for T×B2 /PGF2 α+β is calculated for each concentration of test compound and IC50 values are determined graphically as the concentration of test compound at which the ratio of T×B2 /PGF2 α+β is reduced to 50% of the control value.

3 compounds from patent publication US4889861A, “Substituted imidazo[1,5-a]pyridine derivatives and other substituted bicyclic derivatives and their use as aromatase inhibitors” (Ciba-Geigy Corp., priority 1987, dated 1989) can be followed below.

In experiment [1], `N#Cc1ccc(-c2cccc3cncn23)cc1` [Example 3, 5-(p-Cyanophenyl)imidazo[1,5-a]pyridine] returned a minimal effective dose of 0.013 mg/kg.
On to `O=C(O)c1ccc(C2CCCc3cncn32)cc1` (stereo not drawn) [Example 9, 5-(p-Carboxyphenyl)-5,6,7,8-tetrahydroimidazo[1,5-a]-pyridine], for which, in experiment [2], the IC50 is ~900 nM.
As for `CCOC(=O)CC1CCc2cncn2C1c1ccc(C#N)cc1` (stereo not drawn) [Example 33, 5-(4-cyanophenyl)-6-ethoxycarbonylmethyl-5,6,7,8-tetrahydroimidazo[1,5-a]pyridine], in experiment [1], the minimal effective dose turned out to be 0.346 mg/kg.
